# Results reported in ChEMBL document CHEMBL1122776, “Synthesis and antitumor activity of some aromatic seleno lactones” (J Med Chem, 1984).
# Legend:
# Format in all cases: cell-based
# Settings in all cases: read-out: LD50
# [1] = In vitro cytotoxic activity against of human colon tumor-8r cells in culture and LD50 was reported at the end of incubation period of 24 hours.
# [2] = In vitro cytotoxic activity against of human colon tumor-8r cells in culture and LD50 was reported at the end of incubation period of 72 hours.
# [3] = In vitro cytotoxic activity against of human colon tumor-8r cells in culture and LD50 was reported at the end of incubation period of 48 hours.
# [4] = In vitro cytotoxic activity against human colon tumor-8r cells in culture and LD50 was reported at the end of incubation period of 48 hours.
# [5] = In vitro cytotoxic activity against human colon tumor-8r cells in culture and LD50 was reported at the end of incubation period of 72 hours.
# [6] = In vitro cytotoxic activity against human colon tumor-8r cells in culture and LD50 was reported at the end of incubation period of 24 hours.
Compound,CC50 at 24 h [1],CC50 at 72 h [2],CC50 at 48 h [3],CC50 at 48 h [4],CC50 at 72 h [5],CC50 at 24 h [6]
CCCCCCCC(=O)Oc1cccc2c1CC(C[Se]c1ccccc1)C(=O)O2 (centres undefined),300 µM,180 µM,230 µM,–,–,–
CC(=O)Oc1cccc2c1CC(C[Se]c1ccccc1)C(=O)O2 (centres undefined),290 µM,–,–,240 µM,180 µM,–
CCCC(=O)Oc1cccc2c1CC(C[Se]c1ccccc1)C(=O)O2 (centres undefined),–,–,–,270 µM,320 µM,370 µM
O=C1Oc2cccc(OC3CCCCO3)c2CC1C[Se]c1ccccc1 (centres undefined),–,–,–,190 µM,150 µM,260 µM
O=C1Oc2cccc(O)c2CC1C[Se]c1ccccc1 (centres undefined),–,–,–,280 µM,230 µM,330 µM
Sc1ncnc2nc[nH]c12 [MERCAPTOPURINE ANHYDROUS],–,–,–,350 µM,280 µM,760 µM
CCCCCCCCCC(=O)Oc1cccc2c1CC(C[Se]c1ccccc1)C(=O)O2 (centres undefined),–,–,–,150 µM,140 µM,230 µM
CCC(=O)Oc1cccc2c1CC(C[Se]c1ccccc1)C(=O)O2 (centres undefined),–,210 µM,250 µM,–,–,310 µM
